The subject of this assay is P388 leukemia ip, CD2F1 mice, survival T/C. The assay is described as follows: NCI In Vivo Anticancer Drug Screen. Data for tumor model P388 Leukemia (intraperitoneal) in CD2F1 (CDF1) mice. The conditions noted are these: endpoint: median survival time, higher = longer survival. The essentials: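 Mice carrying the transplanted tumor received test compound or vehicle. Survival was recorded in each group, and the value is the treated-group measurement divided by that of the vehicle-treated control group.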

Setting [1] is: dose: 12.5 mg/kg/injection, schedule: Q01DX009 (ip), vehicle: saline with Tween-80.
[2] abbreviates: dose: 25.0 mg/kg/injection, schedule: Q01DX009 (ip), vehicle: saline with Tween-80.
[3] abbreviates: dose: 100.0 mg/kg/injection, schedule: Q04DX003 (ip), vehicle: saline with Tween-80.
Where [4] appears, read: dose: 200.0 mg/kg/injection, schedule: Q04DX003 (ip), vehicle: saline with Tween-80.
[5] abbreviates: dose: 50.0 mg/kg/injection, schedule: Q01DX005 (ip), vehicle: Klucel (hydroxypropylcellulose) (HPC).
[6] abbreviates: dose: 100.0 mg/kg/injection, schedule: Q01DX005 (ip), vehicle: Klucel (hydroxypropylcellulose) (HPC).
Setting [7] is: dose: 200.0 mg/kg/injection, schedule: Q01DX005 (ip), vehicle: Klucel (hydroxypropylcellulose) (HPC).
The mark [8] stands for this setting: dose: 100.0 mg/kg/injection, schedule: Q01DX009 (ip), vehicle: saline with Tween-80.
Where [9] appears, read: dose: 200.0 mg/kg/injection, schedule: Q01DX009 (ip), vehicle: saline with Tween-80.
Where [10] appears, read: dose: 60.0 mg/kg/injection, schedule: Q01DX005 (ip), vehicle: saline with Tween-80.
Where [11] appears, read: dose: 120.0 mg/kg/injection, schedule: Q01DX005 (ip), vehicle: saline with Tween-80.
Where [12] appears, read: dose: 50.0 mg/kg/injection, schedule: Q01DX009 (ip), vehicle: Klucel (hydroxypropylcellulose) (HPC).
[13] abbreviates: dose: 100.0 mg/kg/injection, schedule: Q01DX009 (ip), vehicle: Klucel (hydroxypropylcellulose) (HPC).
The mark [14] stands for this setting: dose: 200.0 mg/kg/injection, schedule: Q01DX009 (ip), vehicle: Klucel (hydroxypropylcellulose) (HPC).
Setting [15] is: dose: 50.0 mg/kg/injection, schedule: Q01DX005 (ip), vehicle: saline with Tween-80.
Setting [16] is: dose: 100.0 mg/kg/injection, schedule: Q01DX005 (ip), vehicle: saline with Tween-80.
Setting [17] is: dose: 200.0 mg/kg/injection, schedule: Q01DX005 (ip), vehicle: saline with Tween-80.

Several values for one entry are separate records, joined by “and”; a condition that tells them apart may be missing. Equal values may be shown once. Toxic doses and inconclusive results are not listed.

As for `C=C1C(=O)C23[C@H](O)C1CC[C@H]2[C@]12COC3(O)[C@@H](O)[C@@H]1C(C)(C)CC[C@@H]2O`, the T/C is 113 % of control (dose: 6.25 mg/kg/injection, schedule: Q01DX009 (ip), vehicle: saline with Tween-80); 106 % of control (dose: 8.0 mg/kg/injection, schedule: Q01DX009 (ip), vehicle: saline with Tween-80); 117 % of control (dose: 9.0 mg/kg/injection, schedule: Q01DX009 (ip), vehicle: saline with Tween-80); 104 % of control under setting [1]; 104 % of control under setting [2]; 121 % of control (dose: 27.0 mg/kg/injection, schedule: Q01DX009 (ip), vehicle: saline with Tween-80).

`COc1ccc(-n2c(C)csc2=S)cc1`: the T/C by setting is: (dose: 50.0 mg/kg/injection, schedule: Q04DX003 (ip), vehicle: saline with Tween-80) 100 % of control; under setting [3], 100 % of control; under setting [4], 95 % of control.

As to `COc1nc(COC(=O)NC(C)C)c(COC(=O)NC(C)C)n1C`, the T/C reads like this: (dose: 12.5 mg/kg/injection, schedule: Q01DX005 (ip), vehicle: Klucel (hydroxypropylcellulose) (HPC)) 109 % of control; (dose: 25.0 mg/kg/injection, schedule: Q01DX005 (ip), vehicle: Klucel (hydroxypropylcellulose) (HPC)) 118 % of control; under setting [5], 123 % of control; under setting [6], 166 % of control; under setting [7], 189 % of control; (dose: 400.0 mg/kg/injection, schedule: Q01DX005 (ip), vehicle: Klucel (hydroxypropylcellulose) (HPC)) 196 % of control.

`CC1(C)CCC2=C1CC[C@H]1[C@H]2CCC2=CC(=O)CC[C@@]21C`: the T/C is 90 % of control under setting [8]; 110 % of control under setting [3]; 100 % of control under setting [9]; 105 % of control under setting [4]; 115 % of control (dose: 400.0 mg/kg/injection, schedule: Q04DX003 (ip), vehicle: saline with Tween-80).

On to `COC(=O)C1CCC(/C(C#N)=C2/CCC(C(=O)OC)[N-]2)=N1.COC(=O)C1CCC(/C(C#N)=C2/CCC(C(=O)OC)[N-]2)=N1.[Cu+2]` (stereo unspecified), for which the T/C runs as follows: under setting [10], 103 % of control; under setting [11], 94 % of control.

For the molecule `O=C1OC(C(O)CO)C(O)C1O` (stereo unspecified), the T/C by setting is: under setting [5], 99 % of control; (dose: 50.0 mg/kg/injection, schedule: Q01DX005 (ip), vehicle: saline) 94 % of control and 109 % of control and 102 % of control; under setting [6], 97 % of control; (dose: 100.0 mg/kg/injection, schedule: Q01DX005 (ip), vehicle: saline) 96 % of control and 105 % of control and 98 % of control; under setting [7], 101 % of control; (dose: 200.0 mg/kg/injection, schedule: Q01DX005 (ip), vehicle: saline) 96 % of control and 105 % of control.

As for `CC(=O)NCNC(C)=O`, the T/C was 100 % of control (dose: 50.0 mg/kg/injection, schedule: Q01DX009 (ip), vehicle: saline); 97 % of control (dose: 100.0 mg/kg/injection, schedule: Q01DX009 (ip), vehicle: saline); 108 % of control (dose: 200.0 mg/kg/injection, schedule: Q01DX009 (ip), vehicle: saline).

Regarding `CC(C)c1ccc(C(CC(=O)c2ccccc2)C(C(=O)O)c2ccc([N+](=O)[O-])cc2)cc1` (stereo unspecified), the T/C under setting [12] was 105 % of control, the T/C under setting [13] was 103 % of control and the T/C under setting [14] is 104 % of control.

On to `Clc1ccc(Cc2nc3ccccc3s2)cc1`, for which the T/C under setting [10] was 106 % of control and the T/C under setting [11] is 121 % of control.

Regarding `O=C(Nc1ccc(C2=NCCN2)cc1)c1ccc(C(=O)Nc2ccc(C3=NCCN3)cc2)c(Cl)c1`, the T/C was 99 % of control (dose: 0.2 mg/kg/injection, schedule: Q01DX009 (ip), vehicle: saline with Tween-80); 117 % of control (dose: 0.39 mg/kg/injection, schedule: Q01DX009 (ip), vehicle: saline with Tween-80); 122 % of control (dose: 0.78 mg/kg/injection, schedule: Q01DX009 (ip), vehicle: saline with Tween-80); 163 % of control (dose: 20.0 mg/kg/injection, schedule: Q01DX010 (ip), vehicle: water); 95 % of control (dose: 45.0 mg/kg/injection, schedule: Q04DX003 (ip), vehicle: saline).

With `COC(=O)C1CCC(c2ccccc2)(c2ccccc2)C1=O.COC(=O)C1CCC(c2ccccc2)(c2ccccc2)C1=O.[Cu]` (stereo unspecified), the T/C by setting is: (dose: 100.0 mg/kg/injection, schedule: Q01DX001 (ip), vehicle: Klucel (hydroxypropylcellulose) (HPC)) 100 % of control; (dose: 200.0 mg/kg/injection, schedule: Q01DX001 (ip), vehicle: Klucel (hydroxypropylcellulose) (HPC)) 100 % of control; (dose: 400.0 mg/kg/injection, schedule: Q01DX001 (ip), vehicle: Klucel (hydroxypropylcellulose) (HPC)) 102 % of control.

`O=C(Nc1ccc(F)cc1)N1CCCCC1`: the T/C under setting [10] is 91 % of control; the T/C under setting [11] was 99 % of control; the T/C (dose: 240.0 mg/kg/injection, schedule: Q01DX005 (ip), vehicle: saline with Tween-80) was 97 % of control.

In the case of `C=CC(O)CN1CC1` (stereo unspecified), the T/C was 122 % of control (dose: 0.75 mg/kg/injection, schedule: Q04DX003 (ip), vehicle: saline); 158 % of control (dose: 1.25 mg/kg/injection, schedule: Q01DX009 (ip), vehicle: saline); 113 % of control and 212 % of control (dose: 2.5 mg/kg/injection, schedule: Q01DX009 (ip), vehicle: saline); 181 % of control (dose: 3.0 mg/kg/injection, schedule: Q04DX003 (ip), vehicle: saline); 154 % of control (dose: 6.0 mg/kg/injection, schedule: Q04DX003 (ip), vehicle: saline); 154 % of control (dose: 10.0 mg/kg/injection, schedule: Q04DX003 (ip), vehicle: saline).

Turning to `CCCCCCCC/C=C\CCCCCCCCCCCC(=O)OC/C=C/COC(=O)c1ccccc1`, the T/C under setting [12] was 100 % of control, the T/C under setting [13] is 95 % of control and the T/C under setting [14] was 100 % of control.

As to `COc1ccc2cc(Cl)c3ccccc3c2c1`, the T/C under setting [15] was 87 % of control, the T/C under setting [16] is 90 % of control and the T/C under setting [17] is 86 % of control.

Take `Cc1c2ccncc2c(CO)c2c3ccccc3n(C)c12`: the T/C is, setting by setting: (dose: 5.0 mg/kg/injection, schedule: Q01DX005 (ip), vehicle: saline) 109 % of control; (dose: 10.0 mg/kg/injection, schedule: Q01DX005 (ip), vehicle: saline) 97 % of control; (dose: 20.0 mg/kg/injection, schedule: Q01DX005 (ip), vehicle: saline) 97 % of control.

With `C[Si](C)(C)CSCC#N`, the T/C runs as follows: (dose: 100.0 mg/kg/injection, schedule: Q01DX001 (ip), vehicle: saline with Tween-80) 98 % of control; (dose: 200.0 mg/kg/injection, schedule: Q01DX001 (ip), vehicle: saline with Tween-80) 107 % of control.

Turning to `O=C(O)CC1CC(O)CC/C1=N\Nc1ccc([N+](=O)[O-])cc1[N+](=O)[O-]` (stereo unspecified), the T/C reads like this: under setting [15], 102 % of control; under setting [16], 98 % of control; under setting [17], 91 % of control.

For the molecule `COc1cc(OC)c(OC)cc1/C=C/c1ccc2ccccc2n1`, the T/C is 110 % of control under setting [8]; 110 % of control under setting [9]; 110 % of control (dose: 400.0 mg/kg/injection, schedule: Q01DX009 (ip), vehicle: saline with Tween-80).

Regarding `CCCCOC(=O)/C=C(\Cl)C(=O)OCCCC`, the T/C is 102 % of control and 106 % of control and 111 % of control under setting [1]; 111 % of control and 114 % of control and 118 % of control under setting [2]; 86 % of control under setting [8].

With `CCCCC(=O)N1SC(NC(=O)OC)=Nc2ccccc21`, the T/C is, setting by setting: under setting [5], 101 % of control; under setting [6], 100 % of control; under setting [7], 109 % of control.

Source of the values: PubChem BioAssay AID330 (DTP/NCI, 2004).
